Reference: patent US11759455B2, “Substituted 1H-imidazo[4,5-b]pyridin-2(3H)-ones and their use as GLUN2B receptor modulators” (JANSSEN PHARMACEUTICA NV, priority 2016, dated 2023)
Like-named read-outs stand apart in the source and are kept apart here.

Biological target: T1, human GluN1/GluN2B NMDA receptors (Homo sapiens, UniProt Q13224)
T1 construct: expressed in transfected cells
Test: Cell-based calcium flux (FLIPR) assay on cloned human NR1/NR2B ion channels expressed in mammalian cells (standard and HTS buffer variants);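 note: stable Tet-On inducible cell line, Ca2+ influx triggered by glutamate at about EC40 plus 10 µM glycine, fluorescent dye read-out over 5 min, normalized to control wells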

[1] = standard assay buffer (0.5 mM MgCl2 in dye loading buffer; 137 mM NaCl, 4 mM KCl in assay buffer), human GluN1/GluN2B, read-out: NR2B IC50 (μM) standard assay
[2] = standard assay buffer (0.5 mM MgCl2 dye loading; 137 mM NaCl, 4 mM KCl assay buffer), human GluN1/GluN2B cells, read-out: NR2B IC50 (μM) standard assay
[3] = HTS assay buffer (1.5 mM MgCl2 in dye loading buffer; 150 mM NaCl, 3 mM KCl in assay buffer), human GluN1/GluN2B, read-out: NR2B IC50 (μM) HTS assay

T1 sequence (Q13224 27-1484, other chains not shown): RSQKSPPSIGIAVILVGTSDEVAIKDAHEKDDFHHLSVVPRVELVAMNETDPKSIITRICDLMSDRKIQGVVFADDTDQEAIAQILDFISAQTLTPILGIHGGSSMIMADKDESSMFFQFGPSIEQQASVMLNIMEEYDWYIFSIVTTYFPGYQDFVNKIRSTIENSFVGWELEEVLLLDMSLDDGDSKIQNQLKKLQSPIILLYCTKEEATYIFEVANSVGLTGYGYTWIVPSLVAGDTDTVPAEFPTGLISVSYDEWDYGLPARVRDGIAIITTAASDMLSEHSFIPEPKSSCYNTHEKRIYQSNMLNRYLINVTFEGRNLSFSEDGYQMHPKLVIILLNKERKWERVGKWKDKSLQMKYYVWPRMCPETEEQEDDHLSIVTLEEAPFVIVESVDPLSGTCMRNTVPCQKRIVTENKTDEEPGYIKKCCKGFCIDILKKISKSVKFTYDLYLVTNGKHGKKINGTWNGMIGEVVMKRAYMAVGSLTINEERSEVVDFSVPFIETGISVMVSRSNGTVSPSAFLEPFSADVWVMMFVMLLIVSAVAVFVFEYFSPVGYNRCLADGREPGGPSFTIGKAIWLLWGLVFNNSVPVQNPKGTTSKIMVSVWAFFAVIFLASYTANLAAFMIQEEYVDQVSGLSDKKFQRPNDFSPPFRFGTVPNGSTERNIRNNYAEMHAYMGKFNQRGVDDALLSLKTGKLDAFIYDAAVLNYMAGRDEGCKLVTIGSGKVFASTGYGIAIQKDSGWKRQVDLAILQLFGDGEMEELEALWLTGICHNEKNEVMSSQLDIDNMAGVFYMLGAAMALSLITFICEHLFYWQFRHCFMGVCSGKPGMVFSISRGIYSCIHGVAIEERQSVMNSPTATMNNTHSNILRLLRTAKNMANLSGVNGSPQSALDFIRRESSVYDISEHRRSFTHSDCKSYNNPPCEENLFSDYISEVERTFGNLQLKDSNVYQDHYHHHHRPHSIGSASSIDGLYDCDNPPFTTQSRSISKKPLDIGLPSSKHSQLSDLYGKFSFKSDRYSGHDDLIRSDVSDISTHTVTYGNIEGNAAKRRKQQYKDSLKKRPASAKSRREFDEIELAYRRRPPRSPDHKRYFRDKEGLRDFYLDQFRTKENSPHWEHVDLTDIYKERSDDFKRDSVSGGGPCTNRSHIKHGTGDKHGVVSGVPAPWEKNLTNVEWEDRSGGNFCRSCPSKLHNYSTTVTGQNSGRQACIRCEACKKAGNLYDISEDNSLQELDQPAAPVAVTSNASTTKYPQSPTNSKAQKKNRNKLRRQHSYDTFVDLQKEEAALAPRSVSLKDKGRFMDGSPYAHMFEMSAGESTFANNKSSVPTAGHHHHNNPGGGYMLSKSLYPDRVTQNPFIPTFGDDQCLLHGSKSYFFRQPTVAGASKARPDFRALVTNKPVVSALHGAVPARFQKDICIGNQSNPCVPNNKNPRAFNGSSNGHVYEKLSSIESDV

Structure (SMILES): Cn1c(=O)n(Cc2cccnn2)c2cc(-c3ccc(F)c(C(F)F)c3)cnc21 [Example 541, 6-[3-(Difluoromethyl)-4-fluoro-phenyl]-3-methyl-1-(pyridazin-3-ylmethyl)imidazo[4,5-b]pyridin-2-one]
- IC50 [1]: 0.022 µM

Structure (SMILES): Cn1c(=O)n(Cc2cnccn2)c2cc(-c3cccc(F)c3)cnc21 [Example 55, 6-(3-Fluorophenyl)-3-methyl-1-(pyrazin-2-ylmethyl)imidazo[4,5-b]pyridin-2-one]
- IC50 [2]: 3.03 µM

Structure (SMILES): COc1cccc(-c2cnc3[nH]c(=O)n(CC(=O)NC4CC4)c3c2)c1 [Example 450, N-Cyclopropyl-2-[6-(3-methoxyphenyl)-2-oxo-3H-imidazo[4,5-b]pyridin-1-yl]acetamide]
- IC50 [3]: 1.76 µM

Structure (SMILES): Cc1c(F)ccc(-c2cnc3c(c2)n(CC(=O)N2CC(F)C2)c(=O)n3C)c1F [Example 400, 6-(2,4-Difluoro-3-methyl-phenyl)-1-[2-(3-fluoroazetidin-1-yl)-2-oxo-ethyl]-3-methyl-imidazo[4,5-b]pyridin-2-one]
- IC50 [1]: 0.017 µM

Structure (SMILES): Cn1c(=O)n(CC(=O)N2CCC2)c2cc(-c3ccc(Cl)c(OC(F)F)c3)cnc21 [Example 592, 1-[2-(Azetidin-1-yl)-2-oxo-ethyl]-6-[4-chloro-3-(difluoromethoxy)phenyl]-3-methyl-imidazo[4,5-b]pyridin-2-one]
- IC50 [1]: 0.071 µM

Structure (SMILES): Cn1c(=O)n(CC(=O)N2CC(F)C2)c2cc(-c3ccc(F)s3)cnc21 [Example 83, 1-[2-(3-Fluoroazetidin-1-yl)-2-oxo-ethyl]-6-(5-fluoro-2-thienyl)-3-methyl-imidazo[4,5-b]pyridin-2-one]
- IC50 [2]: 0.033 µM

Structure (SMILES): COCCNC(=O)Cn1c(=O)[nH]c2ncc(-c3cccc(C(F)(F)F)c3)cc21 [Example 442, N-(2-Methoxyethyl)-2-[2-oxo-6-[3-(trifluoromethyl)phenyl]-3H-imidazo[4,5-b]pyridin-1-yl]acetamide]
- IC50 [3]: 0.197 µM

Structure (SMILES): COc1cccc(-c2cnc3[nH]c(=O)n(Cc4ccccn4)c3c2)c1 [Example 288, 6-(3-Methoxyphenyl)-1-(2-pyridylmethyl)-3H-imidazo[4,5-b]pyridin-2-one]
- IC50 [2]: 4.05 µM

Structure (SMILES): Cc1c(F)ccc(-c2cnc3c(c2)n(CC(=O)N2CC(F)C2)c(=O)n3CF)c1F [Example 600, 6-(2,4-Difluoro-3-methyl-phenyl)-1-[2-(3-fluoroazetidin-1-yl)-2-oxo-ethyl]-3-(fluoromethyl)imidazo[4,5-b]pyridin-2-one]
- IC50 [1]: 0.017 µM

Structure (SMILES): Cn1ccc(Cn2c(=O)[nH]c3ncc(-c4ccc(F)cc4)cc32)n1 [Example 128, 6-(4-Fluorophenyl)-1-[(1-methylpyrazol-3-yl)methyl]-3H-imidazo[4,5-b]pyridin-2-one]
- IC50 [2]: 5.16 µM

Structure (SMILES): COc1cccc(-c2cnc3[nH]c(=O)n(CC(=O)c4cccs4)c3c2)c1 [Example 602, 6-(3-Methoxyphenyl)-1-[2-oxo-2-(2-thienyl)ethyl]-3H-imidazo[4,5-b]pyridin-2-one]
- IC50 [1]: 0.204 µM

Structure (SMILES): Cc1c(F)ccc(-c2cnc3c(c2)n(Cc2cccnn2)c(=O)n3C)c1F [Example 67, 6-(2,4-Difluoro-3-methyl-phenyl)-3-methyl-1-(pyridazin-3-ylmethyl)imidazo[4,5-b]pyridin-2-one]
- IC50 [2]: 0.009 µM

Structure (SMILES): Cc1cc(-c2cnc3c(c2)n(CC(=O)N2CC(F)(F)C2)c(=O)n3C)ccc1F [Example 413, 1-(2-(3,3-Difluoroazetidin-1-yl)-2-oxoethyl)-6-(4-fluoro-3-methylphenyl)-3-methyl-1H-imidazo[4,5-b]pyridin-2(3H)-one]
- IC50 [1]: 0.009 µM

Structure (SMILES): COc1cc(F)ccc1-c1cnc2[nH]c(=O)n(CC(N)=O)c2c1 [Example 433, 2-[6-(4-Fluoro-2-methoxy-phenyl)-2-oxo-3H-imidazo[4,5-b]pyridin-1-yl]acetamide]
- IC50 [3]: 0.867 µM

Structure (SMILES): Cn1c(=O)n(Cc2cncc(F)c2)c2cc(-c3cc(F)c(F)c(F)c3)cnc21 [Example 344, 1-[(5-Fluoro-3-pyridyl)methyl]-3-methyl-6-(3,4,5-trifluorophenyl)imidazo[4,5-b]pyridin-2-one]
- IC50 [1]: 0.518 µM

Structure (SMILES): Cc1cccnc1Cn1c(=O)[nH]c2ncc(-c3cc(F)cc(F)c3)cc21 [Example 318, 6-(3,5-Difluorophenyl)-1-[(3-methyl-2-pyridyl)methyl]-3H-imidazo[4,5-b]pyridin-2-one]
- IC50 [1]: > 10 µM

Structure (SMILES): Cc1nnc(Cn2c(=O)n(C)c3ncc(-c4ccc(C(F)(F)F)s4)cc32)o1 [Example 567, 3-Methyl-1-[(5-methyl-1,3,4-oxadiazol-2-yl)methyl]-6-[5-(trifluoromethyl)-2-thienyl]imidazo[4,5-b]pyridin-2-one]
- IC50 [1]: 0.146 µM

Structure (SMILES): COc1cccc(-c2cnc3[nH]c(=O)n(Cc4ccccc4C#N)c3c2)c1 [Example 485, 2-[[6-(3-Methoxyphenyl)-2-oxo-3H-imidazo[4,5-b]pyridin-1-yl]methyl]benzonitrile]
- IC50 [1]: 0.031 µM

Structure (SMILES): Cc1cc(F)ccc1-c1cnc2[nH]c(=O)n(Cc3cccc(C#N)c3)c2c1 [Example 479, 3-[[6-(4-Fluoro-2-methyl-phenyl)-2-oxo-3H-imidazo[4,5-b]pyridin-1-yl]methyl]benzonitrile]
- IC50 [1]: 0.778 µM

Structure (SMILES): COC1CN(C(=O)Cn2c(=O)[nH]c3ncc(-c4cccc(C(F)(F)F)c4)cc32)C1 [Example 191, 1-[2-(3-Methoxyazetidin-1-yl)-2-oxo-ethyl]-6-[3-(trifluoromethyl)phenyl]-3H-imidazo[4,5-b]pyridin-2-one]
- IC50 [2]: 0.132 µM

Structure (SMILES): CC1CCN(CCn2c(=O)[nH]c3ncc(-c4cccc(C(F)(F)F)c4)cc32)C1 (stereo not shown) [Example 164, 1-[2-(3-Methylpyrrolidin-1-yl)ethyl]-6-[3-(trifluoromethyl)phenyl]-3H-imidazo[4,5-b]pyridin-2-one]
- IC50 [2]: 1.22 µM

Structure (SMILES): O=c1ccc(Cn2c(=O)[nH]c3ncc(-c4cccc(C(F)(F)F)c4)cc32)c[nH]1 [Example 244, 1-[(6-Oxo-1H-pyridin-3-yl)methyl]-6-[3-(trifluoromethyl)phenyl]-3H-imidazo[4,5-b]pyridin-2-one]
- IC50 [2]: 1.89 µM

Structure (SMILES): Cn1c(=O)n(Cc2cncc(Cl)c2)c2cc(-c3cccc(C(F)(F)F)c3)cnc21 [Example 366, 1-[(5-Chloro-3-pyridyl)methyl]-3-methyl-6-[3-(trifluoromethyl)phenyl]imidazo[4,5-b]pyridin-2-one]
- IC50 [1]: 0.433 µM

Structure (SMILES): Cc1ncc(-c2cnc3c(c2)n(CC(=O)N2CC(F)C2)c(=O)n3C)s1 [Example 113, 1-[2-(3-Fluoroazetidin-1-yl)-2-oxo-ethyl]-3-methyl-6-(2-methylthiazol-5-yl)imidazo[4,5-b]pyridin-2-one]
- IC50 [2]: 5.36 µM

Structure (SMILES): Cn1c(=O)n(CC(=O)NC2CC(F)(F)C2)c2cc(-c3cccc(C(F)(F)F)c3)cnc21 [Example 200, N-(3,3-Difluorocyclobutyl)-2-[3-methyl-2-oxo-6-[3-(trifluoromethyl)phenyl]imidazo[4,5-b]pyridin-1-yl]acetamide]
- IC50 [2]: 0.174 µM

Structure (SMILES): CC(C)(C)C(=O)Cn1c(=O)[nH]c2ncc(-c3cccc(C(F)(F)F)c3)cc21 [Example 611, 1-(3,3-Dimethyl-2-oxo-butyl)-6-[3-(trifluoromethyl)phenyl]-3H-imidazo[4,5-b]pyridin-2-one]
- IC50 [1]: 0.204 µM

Structure (SMILES): Cn1c(=O)n(CC(=O)N2CC(F)C2)c2cc(-c3cnc(C(F)(F)F)s3)cnc21 [Example 116, 1-[2-(3-Fluoroazetidin-1-yl)-2-oxo-ethyl]-3-methyl-6-[2-(trifluoromethyl)thiazol-5-yl]imidazo[4,5-b]pyridin-2-one]
- IC50 [2]: 0.705 µM

Structure (SMILES): Cc1ccc(C(F)(F)F)cc1-c1cnc2[nH]c(=O)n(CCN3CC(F)C3)c2c1 [Example 185, 1-[2-(3-Fluoroazetidin-1-yl)ethyl]-6-[2-methyl-5-(trifluoromethyl)phenyl]-3H-imidazo[4,5-b]pyridin-2-one]
- IC50 [2]: 2.13 µM

Structure (SMILES): Cn1c(=O)n(Cc2cccnc2)c2cc(-c3cccc(C(F)F)c3)cnc21 [Example 363, 6-[3-(Difluoromethyl)phenyl]-3-methyl-1-(3-pyridylmethyl)imidazo[4,5-b]pyridin-2-one]
- IC50 [1]: 0.053 µM

Structure (SMILES): Cc1ccncc1Cn1c(=O)[nH]c2ncc(-c3ccc(F)c(F)c3)cc21 [Example 275, 6-(3,4-Difluorophenyl)-1-[(4-methyl-3-pyridyl)methyl]-3H-imidazo[4,5-b]pyridin-2-one]
- IC50 [2]: 0.009 µM

Structure (SMILES): Cn1c(=O)n(Cc2cncc(F)c2)c2cc(-c3ccc(F)c(F)c3)cnc21 [Example 343, 6-(3,4-Difluorophenyl)-1-[(5-fluoro-3-pyridyl)methyl]-3-methyl-imidazo[4,5-b]pyridin-2-one]
- IC50 [1]: 0.256 µM

Structure (SMILES): COCCNC(=O)Cn1c(=O)[nH]c2ncc(-c3ccc(F)cc3OC)cc21 [Example 446, 2-[6-(4-Fluoro-2-methoxy-phenyl)-2-oxo-3H-imidazo[4,5-b]pyridin-1-yl]-N-(2-methoxyethyl)acetamide]
- IC50 [1]: 0.204 µM

Structure (SMILES): Cc1cc(-c2cnc3[nH]c(=O)n(Cc4cncc(F)c4)c3c2)ccc1F [Example 299, 6-(4-Fluoro-3-methyl-phenyl)-1-[(5-fluoro-3-pyridyl)methyl]-3H-imidazo[4,5-b]pyridin-2-one]
- IC50 [2]: 0.019 µM

Structure (SMILES): COc1cc(F)ccc1-c1cnc2[nH]c(=O)n(Cc3ccccc3C#N)c2c1 [Example 490, 2-[[6-(4-Fluoro-2-methoxy-phenyl)-2-oxo-3H-imidazo[4,5-b]pyridin-1-yl]methyl]benzonitrile]
- IC50 [1]: 0.046 µM

Structure (SMILES): Cc1cc(Cn2c(=O)[nH]c3ncc(-c4ccc(F)cc4)cc32)nn1C [Example 16, 1-[(1,5-Dimethylpyrazol-3-yl)methyl]-6-(4-fluorophenyl)-3H-imidazo[4,5-b]pyridin-2-one]
- IC50 [2]: 8.9 µM

Structure (SMILES): CCNC(=O)Cn1c(=O)[nH]c2ncc(-c3ccc(F)cc3C)cc21 [Example 3, N-Ethyl-2-[6-(4-fluoro-2-methyl-phenyl)-2-oxo-3H-imidazo[4,5-b]pyridin-1-yl]acetamide]
- IC50 [2]: 0.088 µM

Structure (SMILES): Cn1c(=O)n(Cc2csnn2)c2cc(-c3ccc(F)c(F)c3)cnc21 [Example 545, 6-(3,4-Difluorophenyl)-3-methyl-1-(thiadiazol-4-ylmethyl)imidazo[4,5-b]pyridin-2-one]
- IC50 [1]: 0.512 µM
